What was measured:
A549/ATCC = experiment: NCI 60 five dose assay, Non-small cell lung cancer; type: cell-based, human
SK-MEL-5 = experiment: NCI 60 five dose assay, Melanoma; type: cell-based, human
HCT-116 cells = experiment: Flow cytometric analysis of apoptosis (Annexin V-FITC/PI); type: cell-based; settings: 1.806 μM, 48 h
Procedure: For the detection of apoptosis in the treated cells, the Annexin V-FITC-apoptosis detection kit (PN IM3546) was used, followed by flow cytometric analysis according to the manufacturer's protocol. In this assay, HCT-116 cells were allowed to grow in a […] flask until 70–80% confluence. Then, the HCT-116 cells were treated with compound 4 for 48 h, followed by washing with PBS, and suspended in binding buffer. To […] of the cell suspension, […] of annexin V-FITC solution and […] of dissolved PI were added and incubated for 15 min in the dark. Then […] of ice-cold binding buffer was added and mixed gently. The flow cytometric analysis of the percentage of apoptotic cells was performed on a COULTER® EPICS® XL™ Flow Cytometer (USA).[35]

MDA-MB-231/ATCC = experiment: NCI 60 five dose assay, Breast cancer; type: cell-based, human
UACC-62 = experiment: NCI 60 five dose assay, Melanoma; type: cell-based, human
T-47D = experiment: NCI 60 five dose assay, Breast cancer; type: cell-based, human
SW-620 = experiment: NCI 60 five dose assay, Colon cancer; type: cell-based, human
COLO 205 = experiment: NCI 60 five dose assay, Colon cancer; type: cell-based, human
SR = experiment: NCI 60 five dose assay, Leukemia; type: cell-based, human
CAKI-1 = experiment: NCI 60 five dose assay, Renal cancer; type: cell-based, human
HCT-15 = experiment: NCI 60 five dose assay, Colon cancer; type: cell-based, human
OVCAR-3 = experiment: NCI 60 five dose assay, Ovarian cancer; type: cell-based, human
CCRF-CEM = experiment: NCI 60 five dose assay, Leukemia; type: cell-based, human
SK-MEL-2 = experiment: NCI 60 five dose assay, Melanoma; type: cell-based, human
[1] = Homo sapiens, read-out: LC50 (the source's name)

What does the source list for CC(=NNc1ccc(S(N)(=O)=O)cc1)c1ccc(NN=C2C(=O)NN=C2Nc2ccccc2)cc1 [Compound 4, 4-(2-(1-(4-(2-(5-oxo-3-(phenylamino)-1,5-dihydro-4H-pyrazol-4-ylidene)hydrazinyl)phenyl)ethylidene)hydrazinyl)benzene sulfonamide]?
GI50 (A549/ATCC; Homo sapiens): 19.4 µM; CC50 (A549/ATCC; [1]): > 100 µM; Percent Growth (A549/ATCC; Log10 Concentration -4.0 Molar): 7%; Percent Growth (A549/ATCC; Log10 Concentration -5.0 Molar): 67%; Percent Growth (A549/ATCC; Log10 Concentration -6.0 Molar): 100%; Percent Growth (A549/ATCC; Log10 Concentration -7.0 Molar): 108%; Percent Growth (A549/ATCC; Log10 Concentration -8.0 Molar): 100%; GI50 (SK-MEL-5; Homo sapiens): 3.32 µM; CC50 (SK-MEL-5; [1]): 35.8 µM; Percent Growth (SK-MEL-5; Log10 Concentration -4.0 Molar): -100%; Percent Growth (SK-MEL-5; Log10 Concentration -5.0 Molar): 12%; Percent Growth (SK-MEL-5; Log10 Concentration -6.0 Molar): 91%; Percent Growth (SK-MEL-5; Log10 Concentration -7.0 Molar): 100%; Percent Growth (SK-MEL-5; Log10 Concentration -8.0 Molar): 95%; Apoptosis, Late (HCT-116 cells; control 0.13): 15.81%; Apoptosis, Early (HCT-116 cells; control 0.35): 4.63%; Necrosis (HCT-116 cells; control 1.58): 7.21%; Apoptosis, Total (HCT-116 cells; control 2.06): 27.65%; GI50 (MDA-MB-231/ATCC; Homo sapiens): 2 µM; CC50 (MDA-MB-231/ATCC; [1]): 8.28 µM; Percent Growth (MDA-MB-231/ATCC; Log10 Concentration -4.0 Molar): -100%; Percent Growth (MDA-MB-231/ATCC; Log10 Concentration -5.0 Molar): -63%; Percent Growth (MDA-MB-231/ATCC; Log10 Concentration -6.0 Molar): 99%; Percent Growth (MDA-MB-231/ATCC; Log10 Concentration -7.0 Molar): 99%; Percent Growth (MDA-MB-231/ATCC; Log10 Concentration -8.0 Molar): 95%; GI50 (UACC-62; Homo sapiens): 1.96 µM; CC50 (UACC-62; [1]): 9.6 µM; Percent Growth (UACC-62; Log10 Concentration -4.0 Molar): -93%; Percent Growth (UACC-62; Log10 Concentration -5.0 Molar): -53%; Percent Growth (UACC-62; Log10 Concentration -6.0 Molar): 92%; Percent Growth (UACC-62; Log10 Concentration -7.0 Molar): 93%; Percent Growth (UACC-62; Log10 Concentration -8.0 Molar): 89%; GI50 (T-47D; Homo sapiens, T47D): 2.22 µM; CC50 (T-47D; Homo sapiens, T47D, read-out: LC50 (the source's name)): 23.9 µM; Percent Growth (T-47D; Log10 Concentration -4.0 Molar): -88%; Percent Growth (T-47D; Log10 Concentration -5.0 Molar): -27%; Percent Growth (T-47D; Log10 Concentration -6.0 Molar): 91%; Percent Growth (T-47D; Log10 Concentration -7.0 Molar): 98%; Percent Growth (T-47D; Log10 Concentration -8.0 Molar): 90%; GI50 (SW-620; Homo sapiens): 3.18 µM; CC50 (SW-620; [1]): 58.8 µM; Percent Growth (SW-620; Log10 Concentration -4.0 Molar): -67%; Percent Growth (SW-620; Log10 Concentration -5.0 Molar): 7%; Percent Growth (SW-620; Log10 Concentration -6.0 Molar): 93%; Percent Growth (SW-620; Log10 Concentration -7.0 Molar): 102%; Percent Growth (SW-620; Log10 Concentration -8.0 Molar): 102%; GI50 (COLO 205; Homo sapiens): 3.28 µM; CC50 (COLO 205; [1]): 34.6 µM; Percent Growth (COLO 205; Log10 Concentration -4.0 Molar): -100%; Percent Growth (COLO 205; Log10 Concentration -5.0 Molar): 9%; Percent Growth (COLO 205; Log10 Concentration -6.0 Molar): 94%; Percent Growth (COLO 205; Log10 Concentration -7.0 Molar): 105%; Percent Growth (COLO 205; Log10 Concentration -8.0 Molar): 101%; GI50 (SR; Homo sapiens): 1.74 µM; CC50 (SR; [1]): 23.6 µM; Percent Growth (SR; Log10 Concentration -4.0 Molar): -87%; Percent Growth (SR; Log10 Concentration -5.0 Molar): -28%; Percent Growth (SR; Log10 Concentration -6.0 Molar): 75%; Percent Growth (SR; Log10 Concentration -7.0 Molar): 93%; Percent Growth (SR; Log10 Concentration -8.0 Molar): 85%; GI50 (CAKI-1; Homo sapiens): 12.5 µM; CC50 (CAKI-1; [1]): 50.1 µM; Percent Growth (CAKI-1; Log10 Concentration -4.0 Molar): -100%; Percent Growth (CAKI-1; Log10 Concentration -5.0 Molar): 66%; Percent Growth (CAKI-1; Log10 Concentration -6.0 Molar): 96%; Percent Growth (CAKI-1; Log10 Concentration -7.0 Molar): 102%; Percent Growth (CAKI-1; Log10 Concentration -8.0 Molar): 96%; GI50 (HCT-15; Homo sapiens): 5.29 µM; CC50 (HCT-15; [1]): 42.9 µM; Percent Growth (HCT-15; Log10 Concentration -4.0 Molar): -100%; Percent Growth (HCT-15; Log10 Concentration -5.0 Molar): 36%; Percent Growth (HCT-15; Log10 Concentration -6.0 Molar): 87%; Percent Growth (HCT-15; Log10 Concentration -7.0 Molar): 98%; Percent Growth (HCT-15; Log10 Concentration -8.0 Molar): 99%; GI50 (OVCAR-3; Homo sapiens): 1.87 µM; CC50 (OVCAR-3; [1]): 12.5 µM; Percent Growth (OVCAR-3; Log10 Concentration -4.0 Molar): -100%; Percent Growth (OVCAR-3; Log10 Concentration -5.0 Molar): -45%; Percent Growth (OVCAR-3; Log10 Concentration -6.0 Molar): 86%; Percent Growth (OVCAR-3; Log10 Concentration -7.0 Molar): 89%; Percent Growth (OVCAR-3; Log10 Concentration -8.0 Molar): 82%; GI50 (CCRF-CEM; Homo sapiens): 2.63 µM; CC50 (CCRF-CEM; [1]): > 100 µM; Percent Growth (CCRF-CEM; Log10 Concentration -4.0 Molar): -31%; Percent Growth (CCRF-CEM; Log10 Concentration -5.0 Molar): -5%; Percent Growth (CCRF-CEM; Log10 Concentration -6.0 Molar): 90%; Percent Growth (CCRF-CEM; Log10 Concentration -7.0 Molar): 100%; Percent Growth (CCRF-CEM; Log10 Concentration -8.0 Molar): 98%; GI50 (SK-MEL-2; Homo sapiens): 2.11 µM; CC50 (SK-MEL-2; [1]): 9.1 µM; Percent Growth (SK-MEL-2; Log10 Concentration -4.0 Molar): -96%; Percent Growth (SK-MEL-2; Log10 Concentration -5.0 Molar): -56%; Percent Growth (SK-MEL-2; Log10 Concentration -6.0 Molar): 101%; Percent Growth (SK-MEL-2; Log10 Concentration -7.0 Molar): 104%; Percent Growth (SK-MEL-2; Log10 Concentration -8.0 Molar): 98%
